Reference: patent US20150218534A1, “MODIFIED DNA POLYMERASE” (TOYOBO CO., LTD., priority 2012, published 2015)

B1: KOD P36H/V93K: modified KOD DNA polymerase with P36H and V93K (protein, listed as Thermococcus kodakaraensis)
chain: MILDTDYITEDGKPVIRIFKKENGEFKIEYDRTFEHYFYALLKDDSAIEEVKKITAERHGTVVTVKRVEKVQKKFLGRPVEVWKLYFTHPQDKPAIRDKIREHPAVIDIYEYDIPFAKRYLIDKGLVPMEGDEELKMLAFDIETLYHEGEEFAEGPILMISYADEEGARVITWKNVDLPYVDVVSTEREMIKRFLRVVKEKDPDVLITYNGDNFDFAYLKKRCEKLGINFALGRDGSEPKIQRMGDRFAVEVKGRIHFDLYPVIRRTINLPTYTLEAVYEAVFGQPKEKVYAEEITTAWETGENLERVARYSMEDAKVTYELGKEFLPMEAQLSRLIGQSLWDVSRSSTGNLVEWFLLRKAYERNELAPNKPDEKELARRRQSYEGGYVKEPERGLWENIVYLDFRSLYPSIIITHNVSPDTLNREGCKEYDVAPQVGHRFCKDFPGFIPSLLGDLLEERQKIKKKMKATIDPIERKLLDYRQRAIKILANSYYGYYGYARARWYCKECAESVTAWGREYITMTIKEIEEKYGFKVIYSDTDGFFATIPGADAETVKKKAMEFLKYINAKLPGALELEYEGFYKRGFFVTKKKYAVIDEEGKITTRGLEIVRRDWSEIAKETQARVLEALLKDGDVEKAVRIVKEVTEKLSKYEVPPEKLVIHEQITRDLKDYKATGPHVAVAKRLAARGVKIRPGTVISYIVLKGSGRIGDRAIPFDEFDPTKHKYDAEYYIENQVLPAVERILRAFGYRKEDLRYQKTRQVGLSAWLKPKGT

Experiments:
Type in all cases: biochemical
[1] = tested on: 0.7 kbp of human β-globin amplified in PCR with dUTP; test: Degradation with UNG of DNA amplified in the presence of dUTP; conditions: for degradation with UNG of DNA amplified with the polymerase in the presence of dUTP: 37° C. for 10 minutes (FIG. 13)
Experimental: It was confirmed whether 0.7 kbp of human β-globin amplified using KOD mutant with reduced uracil sensitivity (N210D/Y7A/P36H) in PCR with dUTP was degraded by being reacted with UNG. For PCR, components included in KOD-Plus-Ver. 2 (produced by Toyobo Co. Ltd.) were used. 50 μl of a reaction solution containing 1× PCR buffer, 1.5 mM MgSO4, dNTPs (dATP, dUTP, dCTP, dGTP) in an amount of 2 mM in which dTTP was replaced by dUTP, primers (SEQ ID NOs: 50 and 51) in an amount of 15 pmol, 10 ng of human genomic DNA (produced by Roche), and 1 U of the enzyme mixed with an antibody was used. PCR was performed using a GeneAmp PCR system 9700 (Applied Biosystems) on the following schedule: preliminary reaction at 94° C. for 2 minutes, followed by 35 cycles, each cycle consisting of 98° C. for 10 seconds, 60° C. for 30 seconds, and 68° C. for 1 minute. The amplification products were diluted with the above-mentioned 1× PCR buffer to 10 ng/μl, 8 μl of the diluted amplification products was mixed with 2 μl of various concentrations of UNG (produced by Roche), and the mixtures were reacted at 37° C. for 10 minutes. After the completion of each individual reaction, each of the mixtures was analyzed using a DNA-1000 kit for MultiNA (produced by Shimadzu Corporation) to confirm the amount of amplification products.

[2] = tested on: Psychrobacter DNA; test: PCR amplification using inosine-containing primers; conditions: primers 75 pmol or 150 pmol, 35 cycles (FIG. 11)
Experimental: Using inosine-containing primers, the difference in PCR amplification was compared. For comparison, KOD mutants and KOD (wild-type), each mixed with 1 μg of a KOD antibody per U of the enzyme, and Taq DNA polymerase mixed with an antibody (a mixture of equal amounts of Taq DNA polymerase (produced by Toyobo Co. Ltd.) and Anti-Taq High (produced by Toyobo Co. Ltd.)) were used.
For PCR with the KOD mutants and PCR with the KOD, a buffer, MgSO4, and dNTPs included in KOD-Plus-Ver. 2 (produced by Toyobo Co. Ltd.) were used. 50 μl of individual reaction solutions containing 1× PCR buffer, 1.5 mM MgSO4, dNTPs (dATP, dTTP, dCTP, dGTP) in an amount of 0.2 mM, primers (SEQ ID NOs: 40 and 41) in an amount of 75 pmol or 150 pmol, 100 ng of Psychrobacter DNA, and 1 U of each respective enzyme mixed with the antibody were used. PCR was performed using a GeneAmp PCR system 9700 (Applied Biosystems) on the following schedule: preliminary reaction at 94° C. for 2 minutes, followed by 35 cycles, each cycle consisting of 98° C. for 10 seconds, 54° C. for 10 seconds, and 68° C. for 1 minute.
For PCR with the Taq DNA polymerase, 50 μl of a reaction solution containing 1× buffer included in Blend Taq (product of Toyobo), dNTPs (dATP, […], dCTP, dGTP) in an amount of 0.2 mM, primers in an amount of 75 pmol or 150 pmol (the same as above), 100 ng of Psychrobacter DNA, and 2.5 U of the enzyme mixed with the antibody was used. PCR was performed using a GeneAmp PCR system 9700 (Applied Biosystems) on the following schedule: preliminary reaction at 94° C. for 2 minutes, followed by 35 cycles, each cycle consisting of 94° C. for 30 seconds, 54° C. for 30 seconds, and 68° C. for 1 minute.
After the completion of each individual reaction, each of the resulting reaction solutions was analyzed using a DNA-1000 kit for MultiNA (produced by Shimadzu Corporation) to confirm amplified DNA fragments.

[3] = tested on: 1.3 kbp, 2.8 kbp, and 3.6 kbp of human β-globin; test: Amplification of long-chain DNA in PCR using dUTP; design: key to Results of PCR in the presence of dUTP 1.3 kbp / Results of PCR in the presence of dUTP 2.8 kbp / Results of PCR in the presence of dUTP 3.6 kbp: A: Amplified; B: Amplified (faint band); C: Not amplified; conditions: dTTP replaced by dUTP, 35 cycles
Outline: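 Enzymes (1 U, premixed with KOD antibody) amplified 1.3, 2.8 and 3.6 kbp β-globin from 10 ng human genomic DNA with 2 mM dNTPs having dUTP in place of dTTP, 1.5 mM MgSO4, 35 cycles (98° C. 10 s, 65° C. 30 s, 68° C. ~1 min/kbp). Taq control: 2.5 U, 94° C. denaturation. Yield judged by ethidium-stained agarose gel.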

Molecule	amount of UNG that completely degraded the amplified DNA ([1]; 80 ng of DNA, 37° C. for 10 minutes) [U]	degradation with UNG of DNA amplified with the polymerase in the presence of dUTP [1]	amplification with inosine-containing primers [2]	Results of PCR in the presence of dUTP 1.3 kbp [3]	Results of PCR in the presence of dUTP 2.8 kbp [3]	Results of PCR in the presence of dUTP 3.6 kbp [3]
KOD N210D/Y7A/P36H: KOD N210D (exo(−)) mutant with Y7A and P36H	0.25	can be degraded by being reacted with UNG	stable amplification was confirmed	A	A	A
KOD Y7A/V93K: modified KOD DNA polymerase with Y7A and V93K	–	the DNA was degraded with UNG	stable amplification was confirmed	A	A	B
KOD Y7A/P36H: modified KOD DNA polymerase with Y7A and P36H	–	the DNA was degraded with UNG	stable amplification was confirmed	A	A	B
B1	–	–	–	A	A	C
